In patent US10889572B2, “Reactive oxygen species scavengers and use for treating diseases” (XW LABORATORIES INC., priority 2017, dated 2021):

Tested on: HT-1080 (fibrosarcoma) cells
Assay: Primary screening by ferroptosis assay (Erastin-induced, cell viability, CellTiter-Glo)
Assay type: cell-based
Details: HT-1080 cells, 30 hours, % remaining activity, read-out: EC50, Inhibition for Ferroptosis in HT-1080 Cell
Protocol: Cell Lines and Media: HT-1080 (fibrosarcoma) cells were obtained from American Type Culture Collection. Cells were grown in EMEM media, 10% Heat-Inactivated FBS, and penicillin-streptomycin mix (Invitrogen). Cells were maintained at 37° C. and 5% CO2 in a tissue culture incubator.
Cell Viability Assay: Seed 10,000 cell/well of HT-1080 cells with 195 μL growth media in black and clear bottom 96-well plates (Cat #Corning 3904) and allow cells to adhere overnight. The next day, dilute test compound by 2-fold dilution into 12 points with medium containing 400 μM Erastin. Transfer 5 μL of compounds solution into growth medium in triplicated wells. 30 hours later, add Cell Titer-Glo® Luminescent cell viability assay reagent (Cat #, Promega G8081) to measure HT-1080 cell viability according to the manufacture protocol. Briefly, aspirate 100 μL medium, and add 50 μL CellTiter-Glo® Luminescent reagent to each well and incubated for 30 minutes at room temperature to stabilize the Luminescent signal. Seal the plates and centrifuged for 1 minute at 1,000 rpm to remove bubbles. Shake the plates for 1 minute on an orbital shaker. Read the plate to detect Luminescent signal with EnSpire Multimode Plate Reader (PerkinElmer). The remaining activity % is used to evaluate Erastin induced ferroptosis in HT-1080 cells and expressed as the following formula: % Remaining Activity−100×[(Sample−Backgroundavg)/(Vehicle−Background avg)]
Sample: Readout from the test compound
Vehicle: Readout from the vehicle sample
Background: Readout from the Erastin only treatment
Dose response curve is graphed by using the non-linear regression analysis (formula equation 201) in XLFit (Excel add-in software) for the average % remaining activity from triplicates, and the EC50 values is then calculated. In this anti-ferroptosis assay, ferrostatin-1, and XJB-5-131 are included as reference. The acceptance criteria were set based on historical result, mean±2.58*SD in logarithmic scale, meanwhile Z′>0.5.

| Structure (SMILES) | EC50 [µM] |
| --- | --- |
| CC(C)C[C@@H](/C=C/[C@H](Cc1ccccc1)C(=O)N1CCC[C@H]1C(=O)N[C@@H](CCCCNC(=O)OCc1ccccc1)C(=O)NC1CC(C)(C)N(O)C(C)(C)C1)NC(=O)OC(C)(C)C [Example XXVII, Benzyl N-[(5S)—5-{[(2S)-1-[(2S,3E,5S)-2-benzyl-5-{[(tertbutoxy)carbonyl]amino}-7-methyloct-3-enoyl]pyrrolidin-2-yl]formamido}-5-[(1-hydroxy-2,2,6,6-tetramethylpipe-ridin-4-yl)carbamoyl]pentyl]carbamate] | 0.141 |
| CC(C)C[C@@H](/C=C/[C@H](Cc1ccccc1)C(=O)N1CCC[C@H]1C(=O)N[C@@H](CCCNC(=O)OC1CC(C)(C)N(O)C(C)(C)C1)C(=O)OC(C)C)NC(=O)OC(C)(C)C [Example XXX, Propan-2-yl (2S)—2-{[(2S)-1-[(2S,3E,5S)-2-benzyl-5-{[(tert-butoxy)carbonyl]amino}-7-methyloct-3-enoyl]pyrrolidin-2-yl]formamido}-5-({[(1-hydroxy-2,2,6,6-tetramethylpiperidin-4-yl)oxy]carbonyl}amino)pentanoate] | 0.046 |
| CC(C)C[C@@H](/C=C/[C@H](Cc1ccccc1)C(=O)N1CCC[C@H]1C(=O)N[C@@H](CCCNC(=O)OCc1ccccc1)C(=O)OC1CC(C)(C)N(O)C(C)(C)C1)NC(=O)OC(C)(C)C [Example XXXXI, (S)-1-hydroxy-2,2,6,6-tetramethylpiperidin-4-yl 2-((S)-1-((2S,5S,E)-2-benzyl-5-((tert-butoxycarbonyl)amino)-7-methyloct-3-enoyl)pyrrolidine-2-carboxamido)-5-(((benzyloxy)carbonyl)amino)pentanoate] | 0.139 |
| CC(C)C[C@@H](/C=C/[C@H](Cc1ccccc1)C(=O)N1CCC[C@H]1C(=O)N[C@@H](CCCNC(=O)OC1CC(C)(C)N(O)C(C)(C)C1)C(=O)NC(C)C)NC(=O)OC(C)(C)C [Example XXXXV] | 0.144 |
| COC(=O)[C@H](CCCNC(=O)OC1CC(C)(C)N(O)C(C)(C)C1)NC(=O)[C@@H](NC(=O)[C@@H]1CCCN1C(=O)[C@H](/C=C/[C@H](CC(C)C)NC(=O)OC(C)(C)C)Cc1ccccc1)C(C)C [XXXIX, (S)-methyl 2-((S)-2-((S)-1-((2S,5S,E)-2-benzyl-5-((tert-butoxycarbonyl)amino)-7-methyloct-3-enoyl)pyrrolidine-2-carboxamido)-3-methylbutanamido)—5-((((1-hydroxy-2,2,6,6-tetramethylpiperidin-4-yl)oxy)carbonyl)amino)pentanoate] | 0.142 |

Same assay, conditions: Homo sapiens, HT-1080, 30 h, HT-1080 cells, % remaining activity, read-out: EC50, Inhibition for Ferroptosis in HT-1080 Cell

| Structure (SMILES) | EC50 [µM] |
| --- | --- |
| CC(C)C[C@@H](/C=C/[C@H](Cc1ccccc1)C(=O)N1CCC[C@H]1C(=O)N[C@@H](CCCCNC(=O)C1CC(C)(C)N(O)C1(C)C)C(=O)OC(C)C)NC(=O)OC(C)(C)C (stereo partly drawn) [Example XXXII, Propan-2-yl (2S)—2-{[(2S)-1-[(2S,3E,5S)-2-benzyl-5-{[(tert-butoxy)carbonyl]amino}-7-methyloct-3-enoyl]pyrrolidin-2-yl]formamido}-6-[(1-oxyl-2,2,5,5-tetramethylpyrrolidin-3-yl)formamido]-hexanoate] | 0.573 |
| CC(C)C[C@@H](/C=C/[C@H](Cc1ccccc1)C(=O)N1CCC[C@H]1C(=O)N[C@H](CCCCNC(=O)OC1CC(C)(C)N(O)C(C)(C)C1)C(=O)OC(C)C)NC(=O)OC(C)(C)C [Example XXXIII, Propan-2-yl (2R)—2-{[(2S)-1-[(2S,3E,5S)-2-benzyl-5-{[(tert-butoxy)carbonyl]amino}-7-methyloct-3-enoyl]pyrrolidin-2-yl]formamido}-6-({[(1-oxyl-2,2,6,6-tetramethylpiperidin-4-yl)oxy]carbonyl}amino)hexanoate] | 0.291 |
| CCN(CC)C(=O)[C@H](CCCNC(=O)OC1CC(C)(C)N(O)C(C)(C)C1)NC(=O)[C@@H]1CCCN1C(=O)[C@H](/C=C/[C@H](CC(C)C)NC(=O)OC(C)(C)C)Cc1ccccc1 [Example XXXV, tert-Butyl N-[(4S,5E,7S)-7-benzyl-8-[(2S)—2-{[(1S)-1-(diethylcarbamoyl)-4-({[(1-oxyl-2,2,6,6-tetramethylpiperidin-4-yl)oxy]carbonyl}amino)-butyl]carbamoyl}pyrrolidin-1-yl]-2-methyl-8-oxooct-5-en-4-yl]carbamate] | 0.192 |
| CC(C)C[C@@H](/C=C/[C@H](Cc1ccccc1)C(=O)N1CCC[C@H]1C(=O)N[C@@H](CCCCNC(=O)OC1CC(C)(C)N(O)C(C)(C)C1)C(=O)NC(C)(C)C)NC(=O)OC(C)(C)C [Example XXXVI, tert-Butyl N-[(4S,5E,7S)-7-benzyl-8-[(2S)—2-{[(1S)-1-(tert-butylcarbamoyl)-5-({[(1-oxyl-2,2,6,6-tetramethylpiperidin-4-yl)oxy]carbonyl}amino)pentyl]-carbamoyl}pyrrolidin-1-yl]-2-methyl-8-oxooct-5-en-4-yl]carbamate] | 0.142 |
| CC(C)C[C@@H](/C=C/[C@H](Cc1ccccc1)C(=O)N1CCC[C@H]1C(=O)N[C@@H](CCCCNC(=O)OC1CC(C)(C)N(O)C(C)(C)C1)C(=O)NC(C)C)NC(=O)OC(C)(C)C [Example XXXVII, tert-Butyl N-[(4S,5E,7S)-7-benzyl-8-[(2S)—2-{[(1S)-5-({[(1-oxyl-2,2,6,6-tetramethylpiperidin-4-yl)oxy]carbonyl}amino)-1-[(propan-2-yl)carbamoyl]pentyl]carbamoyl}pyrrolidin-1-yl]-2-methyl-8-oxooct-5-en-4-yl]carbamate] | 0.201 |
| CC(C)C[C@@H](/C=C/[C@H](Cc1ccccc1)C(=O)N1CCC[C@H]1C(=O)N[C@@H](CCCNC(=O)OCc1ccccc1)C(=O)OC1CC(C)(C)N(O)C(C)(C)C1)NC(=O)OC(C)(C)C [Example XXXX, (S)-1-Oxyl-2,2,6,6-tetramethylpiperidin-4-yl 2-((S)-1-((2S,5S,E)-2-benzyl-5-((tert-butoxycarbonyl)amino)-7-methyloct-3-enoyl)pyrrolidine-2-carboxamido)-5-(((benzyloxy)carbonyl)amino)pentanoate] | 0.14 |
| CC(C)C[C@@H](/C=C/[C@H](Cc1ccccc1)C(=O)N1CCC[C@H]1C(=O)N[C@H](CCCCNC(=O)OC1CC(C)(C)N(O)C(C)(C)C1)C(=O)O)NC(=O)OC(C)(C)C [XXXIV, (2R)—2-{[(2S)-1-[(2S,3E,5S)-2-benzyl-5-{[(tert-butoxy)carbonyl]amino}-7-methyloct-3-enoyl]pyrrolidin-2-yl]formamido}-6-({[(1-oxyl-2,2,6,6-tetramethylpiperidin-4-yl)oxy]carbonyl}amino)hexanoic acid] | > 4 |
| CC(C)C[C@@H](/C=C/[C@H](Cc1ccccc1)C(=O)N1CCC[C@H]1C(=O)N[C@@H](CCCNC(=O)OC1CC(C)(C)N(O)C(C)(C)C1)C(=O)NC1CC(C)(C)N(O)C(C)(C)C1)NC(=O)OC(C)(C)C [XXXXIII, 1-Hydroxy-2,2,6,6-tetramethylpiperidin-4-yl N-[(4S)—4-{[(2S)-1-[(2S,3E,5S)-2-benzyl-5-{[(tert-butoxy)carbonyl]amino}-7-methyloct-3-enoyl]pyrrolidin-2-yl]formamido}-4-[(1-hydroxy-2,2,6,6-tetramethylpiperidin-4-yl)carbamoyl]butyl]carbamate] | 0.123 |

Same assay, conditions: Homo sapiens, HT-1080 cells, 30 hours, % remaining activity, read-out: EC50, Inhibition for Ferroptosis in HT-1080 Cell

| Structure (SMILES) | EC50 [µM] |
| --- | --- |
| CC(C)C[C@@H](/C=C/[C@H](Cc1ccccc1)C(=O)N1CCC[C@H]1C(=O)N[C@H](C(=O)N[C@@H](CCCNC(=O)OC1CC(C)(C)N(O)C(C)(C)C1)C(=O)NC(C)C)C(C)C)NC(=O)OC(C)(C)C [Example XXXXVII, tert-Butyl N-[(4S,5E,7S)-7-benzyl-8-[(2S)—2-{[(1S)—1-{[(1S)-4-({[(1-oxyl-2,2,6,6-tetramethylpiperidin-4-yl)oxy]carbonyl}amino)-1-[(propan-2-yl)carbamoyl]butyl]carbamoyl}-2-methylpropyl]carbamoyl}pyrrolidin-1-yl]-2-methyl-8-oxooct-5-en-4-yl]carbamate] | 0.143 |
